Test results as given in the supplement of paper PMC10307832.

What was measured:
Assay in all cases: relative viability (nuclei count vs DMSO), 5 days (fraction); higher = more cells survive
Quizartinib + Trametinib = compound: CC(C)(C)c1cc(NC(=O)Nc2ccc(-c3cn4c(n3)sc3cc(OCCN5CCOCC5)ccc34)cc2)no1 [Quizartinib] + CC(=O)Nc1cccc(-n2c(=O)n(C3CC3)c(=O)c3c(Nc4ccc(I)cc4F)n(C)c(=O)c(C)c32)c1 [Trametinib] (partner 0.02 µM)
Summary of the method: (§1)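 Five library-drug doses in √10 steps were combined with a fixed anchor-drug dose, or a single drug was given alone, by pin tool to lung cancer cell lines in 1536-well plates the day after seeding. Nuclei were stained and counted after 5 days. Relative viability is the nuclei count in treated wells over that in vehicle wells, taken as the median of duplicate plates.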

Quizartinib + Decitabine = compound: CC(C)(C)c1cc(NC(=O)Nc2ccc(-c3cn4c(n3)sc3cc(OCCN5CCOCC5)ccc34)cc2)no1 [Quizartinib] + Nc1ncn([C@H]2C[C@H](O)[C@@H](CO)O2)c(=O)n1 [Decitabine] (partner 2 µM)
Summary of the method: as §1

YM155 + Navitoclax = compound: COCC[n+]1c2c(n(Cc3cnccn3)c1C)C(=O)c1ccccc1C2=O [YM155] + CC1(C)CCC(c2ccc(Cl)cc2)=C(CN2CCN(c3ccc(C(=O)NS(=O)(=O)c4ccc(N[C@H](CCN5CCOCC5)CSc5ccccc5)c(S(=O)(=O)C(F)(F)F)c4)cc3)CC2)C1 [Navitoclax] (partner 0.5 µM)
Summary of the method: as §1

Quizartinib + Phenformin = compound: CC(C)(C)c1cc(NC(=O)Nc2ccc(-c3cn4c(n3)sc3cc(OCCN5CCOCC5)ccc34)cc2)no1 [Quizartinib] + N=C(N)NC(=N)NCCc1ccccc1 [Phenformin] (partner 250 µM)
Summary of the method: as §1

| Cell Line | relative viability (Quizartinib + Trametinib; first compound 0.001 µM) | relative viability (Quizartinib + Trametinib; first compound 0.003162 µM) | relative viability (Quizartinib + Trametinib; first compound 0.01 µM) | relative viability (Quizartinib + Trametinib; first compound 0.03162 µM) | relative viability (Quizartinib + Trametinib; first compound 0.1 µM) | relative viability (Quizartinib + Decitabine; first compound 0.001 µM) | relative viability (Quizartinib + Decitabine; first compound 0.003162 µM) | relative viability (Quizartinib + Decitabine; first compound 0.01 µM) | relative viability (Quizartinib + Decitabine; first compound 0.03162 µM) | relative viability (Quizartinib + Decitabine; first compound 0.1 µM) | relative viability (YM155 + Navitoclax; first compound 0.002 µM) | relative viability (YM155 + Navitoclax; first compound 0.006325 µM) | relative viability (YM155 + Navitoclax; first compound 0.02 µM) | relative viability (YM155 + Navitoclax; first compound 0.06325 µM) | relative viability (Quizartinib + Phenformin; first compound 0.001 µM) | relative viability (Quizartinib + Phenformin; first compound 0.003162 µM) | relative viability (Quizartinib + Phenformin; first compound 0.01 µM) | relative viability (Quizartinib + Phenformin; first compound 0.03162 µM) | relative viability (Quizartinib + Phenformin; first compound 0.1 µM) |
| --- | --- | --- | --- | --- | --- | --- | --- | --- | --- | --- | --- | --- | --- | --- | --- | --- | --- | --- | --- |
| NCI-H2009 | 0.266 | 0.251 | 0.218 | 0.246 | 0.247 | 0.408 | 0.295 | 0.396 | 0.373 | 0.443 | 1.16 | 1.13 | 1.06 | 0.567 | 0.464 | 0.48 | 0.504 | 0.44 | 0.174 |
| UMC-11 | 0.417 | 0.722 | 0.714 | 0.728 | 0.644 | – | 0.708 | 0.638 | 0.485 | 0.691 | 0.293 | 0.332 | 0.29 | 0.375 | – | 0.255 | 0.307 | 0.268 | 0.212 |
| EPLC-272H | 0.291 | 0.254 | 0.241 | 0.283 | 0.304 | 0.301 | 0.417 | 0.375 | 0.376 | 0.382 | 1.14 | 1.11 | 1.13 | 1.18 | 0.215 | 0.342 | 0.427 | 0.3 | 0.207 |
